The source of these data is patent US20210369803A1, “COMPOSITION CONTAINING SALVIA MILTIORRHIZA BUNGE EXTRACT AS ACTIVE INGREDIENT FOR TREATMENT OR PREVENTION OF BENIGN PROSTATIC HYPERPLASIA OR ALOPECIA” (CUROME BIOSCIENCES CO., LTD., priority 2019, published 2021).

Data set [1] deals with steroid receptor coactivator-1 (SRC-1). Kind of data set: Western blot of SRC-1 expression in DHT-treated LNCaP cells. The format is cell-based, human. The following applies: 5 μM, DHT-induced LNCaP cells. The protocol: (§1) Animal cells were cultured to investigate the effect of the Salvia miltiorrhiza Bunge extract of the present invention on benign prostatic hyperplasia or alopecia. Human prostate adenocarcinoma cell line LNCaP cells sensitive to androgens were used as animal cells, and purchased from the Korean Cell Line Bank (Seoul, Korea, KCLB #:21740). The cells were cultured in Roswell Park Memorial Institute (RPMI) medium supplemented with […] penicillin/streptomycin and 10% fetal bovine serum (FBS), and maintained in a CO2 incubator at 37° C.
(§2) Goat anti-rabbit immunoglobulin G (IgG, 7074) and anti-mouse IgG (7076) were purchased from Cell Signaling (Danvers, Mass.). […]
(§3) The LNCaP cells were seeded onto 6-well plates (1×10^6 cells/well) in 2 mL of RPMI medium supplemented with 10% FBS, 100 U/mL penicillin, and […] streptomycin. […] The lysed cells were centrifuged at 13,000 RPM for 20 minutes at 4° C., and the protein concentration was determined using BCA assay. […] The chemiluminescent intensities of protein signals were quantified using ImageJ 1.47 v software, and the results are shown in FIG. 2. The data obtained by SPSS version 11.5 for Windows (SPSS Inc., Chicago, Ill., USA) were expressed as the means±standard errors of the means (SEM). […]
A general note: In western blotting, separated proteins are transferred to a membrane and probed.

Data set [2] deals with androgen-related proteins. Kind of data set: Overall effect on androgen-related proteins increased by DHT in LNCaP cells. The format is cell-based, human. The following applies: 5 μM, compared among tanshinone1, tanshinone2a, cryptotanshinone, 15,16-dihydrotanshinone. The protocol: as §1, §2, §3
Data set [3] concerns 5α-reductase type 2 (5AR2). Kind of data set: Western blot of 5AR2 expression in DHT-treated LNCaP cells. The format is cell-based, human. The following applies: 5 μM, DHT-induced LNCaP cells. The protocol: as §1, §2, §3
In data set [4] the test system is prostate-specific antigen (PSA). The data set is described as follows: Western blot of PSA expression in DHT-treated LNCaP cells. The data set is classed as cell-based, human. The following applies: 5 μM, same concentration as tanshinone2a, DHT-induced LNCaP cells. The protocol: as §1, §2, §3
For data set [5], the system named is androgen receptor (AR). Kind of data set: Western blot of AR expression in DHT-treated LNCaP cells. The data set is classed as cell-based, human. The following applies: 5 μM, same concentration as tanshinone2a, DHT-induced LNCaP cells. The method, then: as §1, §2, §3
A short description of data set [6]: Body weight in benign prostatic hyperplasia animal models. The data set is classed as in vivo, Sprague-Dawley rats. The following applies: BPH rats, oral once/day 14 days; extracts and saw palmetto 10-25 mg/kg, finasteride 10 mg/kg. The protocol: Sprague-Dawley rats aged 9 weeks (body weights of 350 g or less) were acclimated for one week or longer, and then used in tests. In order to induce benign prostatic hyperplasia, testicles were removed and then testosterone (dissolved in corn oil) was subcutaneously injected at a dose of 3 mg/kg once/three days for a total of 10 times. […] For the benign prostatic hyperplasia induction groups, testicles were removed and then […] (dissolved in corn oil) was subcutaneously injected at a dose of 3 mg/kg once/three days for a total of 10 times, by the same method as in Example 4.1. For the normal group, an equivalent amount of corn oil was subcutaneously injected. Salvia miltiorrhiza Bunge extracts T70 to T10 and saw palmetto fruit extract were dissolved in distilled water, and orally administered at a dose of 10-25 mg/kg once/day, for 14 days. For the finasteride administration group (Sigma, dissolved in 0.2% Tween 80), finasteride was orally administered at a dose of 10 mg/kg once/day for 14 days. For the negative control group, only distilled water was orally administered. The body weight was measured upon the end of the test, and on the next day after the ending of the last dosing and treatment, the SD-rats were sacrificed with carbon dioxide gas, and then the prostate tissue was extracted and the weight was measured. […]

Data set [7] has as its system cells. The following applies: as reported by SHAN GAO, et al. (2019); cited from earlier work.

Consider `Cc1cccc2c3c(ccc12)C1=C(C(=O)C3=O)[C@@H](C)CO1` [15,16-dihydrotanshinone, (1R)-1,6-dimethyl-1,2-dihydronaphtho[1,2-g][1]benzofuran-10,11-dione], for which, in data set [1], the “inhibition of SRC-1 expression” value is reported as “more effectively than tanshinone2a”. Moreover, the “inhibitory effect on androgen-related proteins increased by DHT” value in data set [2] is given as “most inhibitory effect”. The “inhibition of 5AR2 expression” value in data set [3] was “more effectively than tanshinone2a”. Moreover, the “inhibition of PSA expression relative to tanshinone2a” value in data set [4] is listed as “at least 5 times”. Moreover, the “inhibition of AR expression relative to tanshinone2a” value in data set [5] is “at least 5 times”.
With `CC(C)(C)NC(=O)[C@H]1CC[C@H]2[C@@H]3CC[C@H]4NC(=O)C=C[C@]4(C)[C@H]3CC[C@]12C` [finasteride], the “body weight compared with control group (Con)” value in data set [6] is “no great difference”.
As to `O=C(/C=C/c1ccc(O)c2c1[C@H](C(=O)O[C@H](Cc1ccc(O)c(O)c1)C(=O)O)[C@@H](c1ccc(O)c(O)c1)O2)O[C@H](Cc1ccc(O)c(O)c1)C(=O)O` [salvianolic acid B], the cytotoxicity result in data set [7] is “has cytotoxicity at a predetermined concentration”.
